Measurements taken from patent US5521173A, “Tricyclic benzazepine vasopressin antagonists” (American Home Products Corporation, priority 1995, dated 1996).
pIC50: −log10 of the molar value.

Tests used:
Vasopressin V2 = Vasopressin V2 Antagonist Activity in Conscious Hydrated Rats; type: in vivo, rat; settings: 10 mg/kg orally, AVP 0.4 μg/kg i.p.; for Osmolality: urine
Experimental: Two to four rats are used for each compound. One hour later, arginine vasopressin (AVP, antidiuretic hormore, ADH) dissolved in peanut oil is administered at 0.4 μg/kg intraperitoneally. Two rats in each test would not receive arginine vasopressin but only the vehicle (peanut oil) to serve as water-loading control. Twenty minutes later each rat is given 30 mL/kg of deionized water orally by gavage and is placed individually in a metabolic cage equipped with a funnel and a graduated glass cylinder to collect urine for four hours. Urine volume is measured and osmolality analyzed by use of a Fiske One-Ten osmometer (Fiske Assoc., Norwood, Mass., USA). Urinary sodium, potassium, and chloride are analyzed by use of ion-specific electrodes in a Beckman E3 (Electrolyte 3) Analyzer. In the following results, […] and decreased osmolality relative to AVP-control indicates activity.

oxytocin receptors = biological target: T1, oxytocin receptors (Rattus norvegicus, UniProt P70536); assay: Oxytocin Receptor Binding; set-up: species or system rat (female Sprague-Dawley); settings: for pIC50: 1.0 nM [3H]OT
T1 construct: The uteri are dissected out, cleaned of fat and connective tissues; from tissue; host or cells: uteri of DES-treated female Sprague-Dawley rats
T1 sequence (P70536 1-388): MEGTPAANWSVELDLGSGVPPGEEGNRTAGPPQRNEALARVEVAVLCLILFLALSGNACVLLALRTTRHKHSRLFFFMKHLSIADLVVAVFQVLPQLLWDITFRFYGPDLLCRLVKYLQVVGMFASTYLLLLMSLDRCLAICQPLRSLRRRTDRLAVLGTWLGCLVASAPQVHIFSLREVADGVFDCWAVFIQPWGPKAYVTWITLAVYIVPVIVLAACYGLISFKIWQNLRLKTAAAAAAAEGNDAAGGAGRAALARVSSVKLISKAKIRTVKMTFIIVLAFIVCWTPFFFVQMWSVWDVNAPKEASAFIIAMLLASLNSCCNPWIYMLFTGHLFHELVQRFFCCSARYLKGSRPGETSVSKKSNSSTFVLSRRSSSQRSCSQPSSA
Experimental: Oxytocin Receptor Binding
Female Sprague-Dawley rats weighing approximately 200-250 g are injected intramuscularly (i.m.) with 0.3 mg/kg of body weight of diethylstilbestrol (DES). The rats are sacrificed 18 hours later under pentobarbital anesthesia. The uteri are dissected out, cleaned of fat and connective tissues and rinsed in 50 ml of normal saline. The tissue pooled from six rats is homogenized in 50 ml of […] Tris.HCl, containing 0.5 mM dithiothreitol and 1.0 mM EDTA, adjusted to pH 7.4, using a polytron at setting 6 with three passes of 10 sec each. The homogenate is passed through two (2) layers of cheesecloth and the filtrate centrifuged at 1000× g for 10 min. The clear supernatant is removed and recentrifuged at 165,000× g for 30 min. The resulting pellet containing the oxytocin receptors is resuspended in 50.0 mM Tris.HCl containing 5.0 mM MgCl2 at pH 7.4, to give a protein concentration of 2.5 mg/ml of tissue suspension. This preparation is used in subsequent binding assays with [^3 H]Oxytocin.
Binding of 3,5-[^3 H]Oxytocin ([^3 H]OT) to its receptors is done in microtiter plates using [^3 H]OT, at various concentrations, in an assay buffer of 50.0 mM Tris.HCl, pH 7.4 and containing 5.0 mM MgCl2, and a mixture of protease inhibitors: BSA, 0.1 mg; aprotinin, 1.0 mg; 1,10-phenanthroline, 2.0 mg; […], 10.0 mg; and PMSF, 0.3 mg per 100 ml of buffer solution. Non-specific binding is determined in the presence of 1.0 uM unlabeled OT. The binding reaction is terminated after 60 min., at 22° C., by rapid filtration through glass fiber filters using a Brandel, cell harvester (Biomedical Research and Development Laboratories,Inc., Gaithersburg, Md.). Competition experiments are conducted at equilibrium using 1.0 nM [^3 H]OT and varying the concentration of the displacing agents. The concentrations of agent displacing 50% of [^3 H]OT at its sites (IC50) are calculated by a computer assisted LUNDON-2 program (LUNDON SOFTWARE INC., Ohio, USA).

Vasopressin V1 = Vasopressin V1 Antagonist Activity in Conscious Rats (vasopressin vasopressor response); type: in vivo, rat; settings: for Max % Inhibition: vasopressin vasopressor response
Experimental: Vasopressin V1 Antagonist Activity in Conscious Rats Conscious rats are restrained in a supine position with elastic tape. The area at the base of the tail is locally anesthetized by subcutaneous in filtration with 2% procaine (0.2 ml). Using aseptic technique the ventral caudal tail artery is isolated and a cannula made of PE 10 and 20 (heat-fused) tubing is passed into the lower abdominal aorta. The cannula is secured, heparinized (1000 i.u./cc), sealed and the wound closed with one or two stitches of Dexon 4-0. The caudal vein is also cannulated in the same manner for intravenous drug administration. The duration of the surgery is approximately 5 minutes. Additional local anesthesia (2% procaine or lidocaine) is provided as needed. The animals are placed in plastic restraining cages in an upright position. The cannula is attached to a Statham P23Db pressure transducer and pulsatile blood pressure is recorded. […] Percentage of antagonism by the compound is calculated using the pre-drug vasopressin vasopressor response as 100%. The results of this test on representative compounds of this invention in which the dose, the maximum % inhibition and the time in minutes, are shown in Table III.

[1] = biological target: T2, Vasopressin V1 receptor subtype in Human Platelet Membranes (Homo sapiens, UniProt P37288); assay: Binding to Vasopressin V1 receptor subtype in Human Platelet Membranes
T2 construct: tissue Hudson Valley Blood Services, Westchester Medical Center, Valhalla, N.Y; host or cells: human platelets (frozen platelet rich plasma)
T2 sequence (P37288 whole entry): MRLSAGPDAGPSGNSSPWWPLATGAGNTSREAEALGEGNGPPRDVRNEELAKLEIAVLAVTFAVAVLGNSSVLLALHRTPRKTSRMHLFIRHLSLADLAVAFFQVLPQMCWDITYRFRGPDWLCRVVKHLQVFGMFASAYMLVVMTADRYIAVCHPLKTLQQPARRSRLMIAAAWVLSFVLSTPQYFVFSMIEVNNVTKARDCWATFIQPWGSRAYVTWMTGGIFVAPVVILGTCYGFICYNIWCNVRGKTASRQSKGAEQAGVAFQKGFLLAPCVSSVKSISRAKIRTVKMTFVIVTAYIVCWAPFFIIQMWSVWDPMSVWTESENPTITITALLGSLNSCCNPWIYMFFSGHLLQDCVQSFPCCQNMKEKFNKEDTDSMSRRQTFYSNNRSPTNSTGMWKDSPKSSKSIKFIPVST
Experimental: Radioligand Binding Experiments with Human Platelet Membranes
(a) Platelet Membrane Preparation
Frozen platelet rich plasma (PRP), (Platelet Source: Hudson Valley Blood Services, Westchester Medical Center, Valhalla, N.Y.) are thawed to room temperature. The tubes containing the PRP are centrifuged at 16,000×g for 10 min. at 4° C. and the supernatant fluid discarded. The platelets resuspended in an equal volume of 50.0 mM Tris.HCl, pH 7.5 containing 120 mM NaCl and 20.0 mM EDTA. The suspension is recentrifuged at 16,000× g for 10 min. This washing step is repeated one more time. The wash discarded and the lysed pellets homogenized in low ionic strength buffer of Tris.HCl, 5.0 mM, pH 7.5 containing 5.0 mM EDTA. The homogenate is centrifuged at 39,000× g for 10 min. The resulting pellet is resuspended in Tris.HCl buffer, 70.0 mM, pH 7.5 and recentrifuged at 39,000× g for 10 min. The final pellet is resuspended in 50.0 mM Tris.HCl buffer pH 7.4 containing 120 mM NaCl and 5.0 mM KCl to give 1.0-2.0 mg protein per ml of suspension.
(b) Binding to Vasopressin V1 receptor subtype in Human Platelet Membranes
In wells of a 96 well format microtiter plate, add 100 μl of 50.0 mM Tris.HCl buffer containing 0.2% BSA and a mixture of protease inhibitors (aprotinin, leupeptin etc.). Then add 20 μl of [^3 H]Ligand (Manning or Arg^8 Vasopressin), to give final concentrations ranging from 0.01 to 10.0 nM. Initiate the binding by adding 80.0 μl of platelet suspension (approx. 100 μg protein). Mix all reagents by pipetting the mixture up and down a few times. Non specific binding is measured in the presence of 1.0 µM of unlabeled ligand (Manning or Arg^8 Vasopressin). Let the mixture stand undisturbed at room temperature for ninety (90) min. Upon this time, rapidly filter off the incubate under vacuum suction over GF/B filters, using a Brandel Harvester. Determine the radioactivity caught on the filter disks by the addition of liquid scintillant and counting in a liquid scintillator.

| SMILES | inhibition at 10 µM (oxytocin receptors) | pIC50 (oxytocin receptors) | pIC50 [1] | Urine Volume (Vasopressin V2) | Osmolality (Vasopressin V2) | Time (of maximum % inhibition) (Vasopressin V1; 30 mg/kg po) | Max % Inhibition (Vasopressin V1; 30 mg/kg po) | Time (of maximum % inhibition) (Vasopressin V1; 10 mg/kg iv) | Max % Inhibition (Vasopressin V1; 10 mg/kg iv) | Time (of maximum % inhibition) (Vasopressin V1; 30 mg/kg iv) | Max % Inhibition (Vasopressin V1; 30 mg/kg iv) |
| --- | --- | --- | --- | --- | --- | --- | --- | --- | --- | --- | --- |
| O=C(c1ccc(S(=O)(=O)c2ccccc2)cc1)N1Cc2cccn2Cc2ccccc21 [Example 12] | 69% | – | – | 5.8 ml/4 hrs | 1254 mOsm/kg | – | – | – | – | – | – |
| O=C(c1ccc(-c2cccs2)cc1)N1Cc2cccn2Cc2ccccc21 [Example 1, 10,11-Dihydro-10-[4-(2-thienyl)benzoyl]-5H-pyrrolo[2,1-c][1,4]benzodiazepine] | – | – | – | 5 ml/4 hrs | 1148 mOsm/kg | 120 min | 53% | – | – | – | – |
| O=C(c1ccc(Sc2ccccc2)cc1)N1Cc2cccn2Cc2ccccc21 [Example 15, 10,11-Dihydro-10-[4-(phenylthio)benzoyl]-5H-pyrrolo[2,1-c][1,4] benzodiazepine] | 98% | 5.68 | – | 4 ml/4 hrs | 1278 mOsm/kg | – | – | – | – | – | – |
| Cc1ccc(Sc2ccc(C(=O)N3Cc4cccn4Cc4ccccc43)cc2)cc1 [Example 11] | 86% | 5.74 | – | 11 ml/4 hrs | 825 mOsm/kg | – | – | – | – | 300 min | 54% |
| Cc1ccc(Oc2ccc(C(=O)N3Cc4cccn4Cc4ccccc43)cc2)cc1 [Example 18, 10,11-Dihydro-10-[4-(4-methylphenoxy)benzoyl]-5H-pyrrolo[2,1-c][1,4]benzodiazepine] | 99% | 6.92 | 6.55 | 5.3 ml/4 hrs | 919 mOsm/kg | – | – | – | – | 300 min | 36% |

The next lines start with results.

| inhibition at 10 µM (oxytocin receptors) | pIC50 (oxytocin receptors) | pIC50 [1] | SMILES | Urine Volume (Vasopressin V2) | Osmolality (Vasopressin V2) | Time (of maximum % inhibition) (Vasopressin V1; 30 mg/kg po) | Max % Inhibition (Vasopressin V1; 30 mg/kg po) | Time (of maximum % inhibition) (Vasopressin V1; 10 mg/kg iv) | Max % Inhibition (Vasopressin V1; 10 mg/kg iv) | Time (of maximum % inhibition) (Vasopressin V1; 30 mg/kg iv) | Max % Inhibition (Vasopressin V1; 30 mg/kg iv) |
| --- | --- | --- | --- | --- | --- | --- | --- | --- | --- | --- | --- |
| 100% | 6.96 | – | O=C(c1ccccc1)c1ccc(C(=O)N2Cc3cccn3Cc3ccccc32)cc1 [Example 16, 10-(4-Benzoylbenzoyl)-10,11-dihydro-5H-pyrrolo[2,1-c][1,4]benzodiazepine] | 6 ml/4 hrs | 1022 mOsm/kg | – | – | 240 min | 67% | – | – |
| 100% | 6.96 | 7.89 | CN(C)Cc1ccc2n1Cc1ccccc1N(C(=O)c1ccc(-c3ccccc3)cc1)C2 [Example 20, 10-([1,1'-Biphenyl]-4-ylcarbonyl)-10,11-dihydro-N,N-dimethyl-5H-pyrrolo[2,1-c][1,4]benzodiazepine-3-methanamine] | 3.5 ml/4 hrs | 1650 mOsm/kg | – | – | 240 min | 61% | – | – |
| 62% | – | – | O=C(c1ccc(C#Cc2ccccc2)cc1)N1Cc2cccn2Cc2ccccc21 [Example 4, 10,11-Dihydro-10-[4-(phenylethynyl)-5H-pyrrolo[2,1-c]1,4]benzodiazepine] | 6.3 ml/4 hrs | 1033 mOsm/kg | – | – | – | – | 90 min | 30% |
| 67% | – | 7.68 | Cc1ccc(S(=O)(=O)c2ccc(C(=O)N3Cc4cccn4Cc4ccccc43)cc2)cc1 [Example 13, 10,11-Dihydro-10-[4-[(4-methylphenyl)sulfonyl]benzoyl]-5H-pyrrolo[2,1-c][1,4]benzodiazepine] | 5.5 ml/4 hrs | 1380 mOsm/kg | – | – | – | – | – | – |
| 67% | – | – | C=CCOc1ccc(-c2ccc(C(=O)N3Cc4cccn4Cc4ccccc43)cc2)cc1 [Example 14, 10,11-Dihydro-10-[[4'-(2-propenyloxy)[1,1'-biphenyl]-4-yl]carbonyl]-5H-pyrrolo[2,1-c][1,4]benzodiazepine] | 4 ml/4 hrs | 1247 mOsm/kg | – | – | – | – | 90 min | 50% |
| 77% | 5.60 | – | O=C(c1ccc(-c2nccs2)cc1)N1Cc2cccn2Cc2ccccc21 [Example 10, 10,11-Dihydro-10-[4-(2-thiazolyl)benzoyl]-5H-pyrrolo[2,1-c][1,4]benzodiazepine] | – | – | – | – | – | – | – | – |
| 92% | 5.96 | – | O=C(c1ccc(-c2ccccc2)cc1)N1Cc2cccn2-c2ccccc21 [Example 17, 5-([1,1'-Biphenyl]-4-ylcarbonyl)-4,5-dihydropyrrolo[1,2-a]quinoxaline] | 10.3 ml/4 hrs | 929 mOsm/kg | – | – | – | – | 60 min | 63% |
